By IC50 is commonly meant the point on the concentration scale where inhibition reaches its midpoint.

The subject of assay [1] is SKBR3 cells. Kind of assay: Anti-tumor cell proliferation activity of compound of formula (D-H), Cell-Titer Glo, SKBR3. In kind it is cell-based, human. To be noted: Homo sapiens, SK-BR-3, 120 h. The protocol:
(§1) Cell culture: HCT116 cells and SKBR3 cells were cultured with a McCoy's 5a medium containing 10% fetal bovine serum+1% penicillin-streptomycin at 37° C. with 5% CO2, and OVCAR3 cells were cultured with a 1640 medium containing 20% fetal bovine serum+2 μg/mL bovine insulin+1% penicillin-streptomycin at 37° C. with 5% CO2. Cells at logarithmic growth phase were available for the experiment.
(§2) Cell proliferation activity test: The Cell-Titer Glo reagent was used to test the compound for inhibitory activity on proliferation of the three cell strains HCT116, SKBR3, and OVCAR3. HCT116 cells (1500 per well), SKBR3 cells (3000 per well), and OVCAR3 cells (5000 per well) were seeded on 96-well plates and incubated at 37° C. with 5% CO2 for 24 h. After a solution of the compound to be detected was added (the compound was dissolved in DMSO so that the compound concentration was 1 mM, then the compound was diluted to […] in DMSO at 9 concentrations in a 3-fold dilution, and 10 μL of the prepared compound solution was transferred to the 96-well plate so that the final concentration was 0-300 nM), the mixture was incubated at 37° C. with 5% CO2. HCT116 cells were cultured for 3 days, and SKBR3 cells and OVCAR3 cells were cultured for 5 days. The Cell-Titer Glo reagent was added and the cell activity was measured.
(§3) A negative control group and a positive control group were respectively used as Bottom and Top. The negative control group was not added with cells, only added with the culture medium in the same volume, and other operations were consistent with those of the experimental group. The positive control group was not added with the test drug, and other operations were consistent with those of the experimental group.
(§4) Data analysis: % Inhibition was calculated, and compound IC50 was fitted.
(§5) % Inhibition=1-100%×(Signal−Bottom)/(Top−Bottom).
(§6) Signal referred to the signal value of the experimental group, Bottom referred to the average signal value of the negative control group, and Top referred to the average signal value of the positive control group.

The subject of assay [2] is OVCAR3 cells. Kind of assay: Anti-tumor cell proliferation activity of compound of formula (D-H), Cell-Titer Glo, OVCAR3. In kind it is cell-based. The conditions noted are these: Homo sapiens, OVCAR-3, 120 h. The protocol:
as §1, §2, §3, §4, §5, §6

Assay [3] relates to HCT116 cells. Kind of assay: Anti-tumor cell proliferation activity of compound of formula (D-H), Cell-Titer Glo, HCT116. Type of assay: cell-based. The conditions noted are these: Homo sapiens, HCT-116, 72 h. Here is the method:
as §1, §2, §3, §4, §5, §6

Setting [4] is: read-out: SKBR3 Antiproliferative activity IC50 (nM), SKBR3 cells, 5 days.
Setting [5] is: read-out: OVCAR3 Antiproliferative activity IC50 (nM).
Setting [6] is: read-out: HCT116 Antiproliferative activity IC50 (nM), HCT116 cells, 3 days.

Where two headings read alike, the source gives them in different places. A value given as a limit tells only on which side of the number the result lay.

`CC[C@@]1(O)C(=O)OCc2c1cc1n(c2=O)Cc2c-1nc1cc(F)c(Br)cc1c2CNC(=O)CO` [Compound 5, (S)-N-((9-bromo-4-ethyl-8-fluoro-4-hydroxy-3,14-dioxo-3,4,12,14-tetrahydro-1H-pyrano[3′,4′:6,7]indolizino[1,2-b]quinolin-11-yl)methyl)-2-hydroxyacetamide]: the IC50 in assay [1] (setting [4]) came out at 3.3 nM.
With `CC[C@@]1(O)C(=O)OCc2c1cc1n(c2=O)Cc2c-1nc1cc(Cl)c(C)cc1c2CNC(=O)CO` [Compound 6, (S)-N-((8-chloro-4-ethyl-4-hydroxy-9-methyl-3,14-dioxo-3,4,12,14-tetrahydro-1H-pyrano[3′,4′:6,7]indolizino[1,2-b]quinolin-11-yl)methyl)-2-hydroxyacetamide], the results for the IC50 in assay [1] (setting [4]) and in assay [2] (setting [5]) were 4.8 nM and 2.1 nM, respectively.
For the compound `CC[C@@]1(O)C(=O)OCc2c1cc1n(c2=O)Cc2c-1nc1cc(F)c(C)cc1c2CNC(=O)C1(O)CC1` [Compound 9, (S)-N-((4-ethyl-8-fluoro-4-hydroxy-9-methyl-3,14-dioxo-3,4,12,14-tetrahydro-1H-pyrano[3′,4′:6,7]indolizino[1,2-b]quinolin-11-yl)methyl)-1-hydroxycyclopropane-1-carboxamide], the concentration for half-maximal inhibition (IC50) in assay [1] (setting [4]) was 2.1 nM; in assay [3] (setting [6]), < 10 nM.
The matching figures for `CC[C@@]1(O)C(=O)OCc2c1cc1n(c2=O)Cc2c-1nc1cc(Cl)c(C)cc1c2CNC(=O)C1(O)CC1` [Compound 10, (S)-N-((8-chloro-4-ethyl-4-hydroxy-9-methyl-3,14-dioxo-3,4,12,14-tetrahydro-1H-pyrano[3′,4′:6,7]indolizino[1,2-b]quinolin-11-yl)methyl)-1-hydroxycyclopropane-1-carboxamide]: 2.3 nM and < 10 nM.
On to `CC[C@@]1(O)C(=O)OCc2c1cc1n(c2=O)Cc2c-1nc1cc(Cl)c(C)cc1c2CNC(=O)C(O)C1CC1` (stereo partly drawn) [Compound 11, N—(((S)-8-chloro-4-ethyl-4-hydroxy-9-methyl-3,14-dioxo-3,4,12,14-tetrahydro-1H-pyrano[3′,4′:6,7]indolizino[1,2-b]quinolin-11-yl)methyl)-2-cyclopropyl-2-hydroxyacetamide], for which the IC50 in assay [1] (setting [4]) came out at 3.2 nM.
With `CC[C@@]1(O)C(=O)OCc2c1cc1n(c2=O)Cc2c-1nc1ccc3c(c1c2CNC(=O)C(O)C1CC1)CCC3` (stereo partly drawn) [Compound 13, 2-cyclopropyl-N—(((S)-8-ethyl-8-hydroxy-9,12-dioxo-2,3,8,9,12,14-hexahydro-1H,11H-cyclopenta[f]pyrano[3′,4′:6,7]indolizino[1,2-b]quinolin-15-yl)methyl)-2-hydroxyacetamide], the IC50 in assay [3] (setting [6]) is < 10 nM; in assay [2] (setting [5]), 0.7 nM.
Regarding `CC[C@@]1(O)C(=O)OCc2c1cc1n(c2=O)Cc2c-1nc1cc3c(cc1c2CNC(=O)C(O)C1CC1)OCO3` (stereo partly drawn) [Compound 14, 2-cyclopropyl-N—(((S)-7-ethyl-7-hydroxy-8,11-dioxo-7,8,11,13-tetrahydro-10H-[1,3]dioxolo[4,5-g]pyrano[3′,4′:6,7]indolizino[1,2-b]quinolin-14-yl)methyl)-2-hydroxyacetamide], the values for the IC50 in assay [1] (setting [4]), in assay [3] (setting [6]) and in assay [2] (setting [5]) were 2.2 nM, < 10 nM and 0.9 nM, respectively.
As for `CC[C@@]1(O)C(=O)OCc2c1cc1n(c2=O)Cc2c-1nc1cc3c(cc1c2CNC(=O)[C@@H](O)C1CC1)OCO3` [Compound 14-P1, (S)-2-cyclopropyl-N—(((S)-7-ethyl-7-hydroxy-8,11-dioxo-7,8,11,13-tetrahydro-10H-[1,3]dioxolo[4,5-g]pyrano[3′,4′:6,7]indolizino[1,2-b]quinolin-14-yl)methyl)-2-hydroxyacetamide], the IC50 in assay [1] (SKBR3 cells, 5 days, read-out: SKBR3 Antiproliferative activity IC50) is 2.1 nM; in assay [3] (setting [6]), < 10 nM; in assay [2] (setting [5]) it was 0.6 nM.
Turning to `CC[C@@]1(O)C(=O)OCc2c1cc1n(c2=O)Cc2c-1nc1cc(F)c(Cl)c(F)c1c2CNC(=O)C1(O)CC1` [Compound 16, (S)-N-((9-chloro-4-ethyl-8,10-difluoro-4-hydroxy-3,14-dioxo-3,4,12,14-tetrahydro-1H-pyrano[3′,4′:6,7]indolizino[1,2-b]quinolin-11-yl)methyl)-1-hydroxycyclopropane-1-carboxamide], the IC50 in assay [1] (setting [4]) is 2.3 nM; in assay [3] (setting [6]), < 10 nM.
The matching figures for `CC[C@@]1(O)C(=O)OCc2c1cc1n(c2=O)Cc2c-1nc1cc(Cl)c(C)cc1c2CNC(=O)C(C)(C)O` [Compound 17, (S)-N-((8-chloro-4-ethyl-4-hydroxy-9-methyl-3,14-dioxo-3,4,12,14-tetrahydro-1H-pyrano[3′,4′:6,7]indolizino[1,2-b]quinolin-11-yl)methyl)-2-hydroxy-2-methylpropanamide]: 2.7 nM and < 10 nM.
As for `CC[C@@]1(O)C(=O)OCc2c1cc1n(c2=O)Cc2c-1nc1cc(Cl)c(C)cc1c2CNC(=O)C(O)C(C)C` (stereo partly drawn) [Compound 18, N—(((S)-8-chloro-4-ethyl-4-hydroxy-9-methyl-3,14-dioxo-3,4,12,14-tetrahydro-1H-pyrano[3′,4′:6,7]indolizino[1,2-b]quinolin-11-yl)methyl)-2-hydroxy-3-methylbutanamide], the figures for the IC50 in assay [1] (setting [4]) and in assay [3] (setting [6]) were 5.1 nM and 10 to 100 nM, respectively.
As for `[2H]C1([2H])Oc2cc3nc4c(c(CNC(=O)[C@@H](O)C5CC5)c3cc2O1)Cn1c-4cc2c(c1=O)COC(=O)[C@]2(O)CC` [Compound 19-P1, (S)-2-cyclopropyl-N—(((S)-7-ethyl-7-hydroxy-8,11-dioxo-7,8,11,13-tetrahydro-10H-[1,3]dioxolo[14,5-g]pyrano[3′,4′:6,7]indolizino[1,2-b]quinolin-14-yl-2,2-d2)methyl)-2-hydroxyacetamide], the IC50 in assay [3] (setting [6]) was < 10 nM; in assay [2] (setting [5]), 0.6 nM.
Regarding `[2H]C1([2H])Oc2cc3nc4c(c(CNC(=O)[C@@H](O)C5CC5)c3cc2O1)Cn1c-4cc2c(c1=O)COC(=O)[C@]2(O)CC` [Compound 19-P2, 2-cyclopropyl-N—(((S)-7-ethyl-7-hydroxy-8,11-dioxo-7,8,11,13-tetrahydro-10H-[1,3]dioxolo[4,5-g]pyrano[3′,4′:6,7]indolizino[1,2-b]quinolin-14-yl-2,2-d2)methyl)-2-hydroxyacetamide], the IC50 was < 10 nM in assay [3] (HCT116 cells, 3 days, read-out: HCT116 Antiproliferative activity IC50) and 1 nM in assay [2] (OVCAR3 cells, 5 days, read-out: OVCAR3 Antiproliferative activity IC50).
As for `CC[C@@]1(O)C(=O)OCc2c1cc1n(c2=O)Cc2c-1nc1ccc3occc3c1c2CNC(=O)CO` [Compound 20, (S)-N-((8-ethyl-8-hydroxy-9,12-dioxo-8,9,12,14-tetrahydro-11H-furo[3,2-f]pyrano [3′,4′:6,7]indolizino[1,2-b]quinolin-15-yl)methyl)-2-hydroxyacetamide], the IC50 in assay [1] (setting [4]) was 10.5 nM; in assay [3] (setting [6]) it was 10 to 100 nM.
On to `CC[C@@]1(O)C(=O)OCc2c1cc1n(c2=O)Cc2c-1nc1cc3c(c(Cl)c1c2CNC(=O)C(O)C1CC1)OCO3` (stereo partly drawn) [Compound 30, N—(((S)-15-chloro-7-ethyl-7-hydroxy-8,11-dioxo-7,8,11,13-tetrahydro-10H-[1,3]dioxolo[4,5-g]pyrano[3′,4′:6,7]indolizino[1,2-b]quinolin-14-yl)methyl)-2-cyclopropyl-2-hydroxyacetamide], for which the results for the IC50 in assay [3] (setting [6]) and in assay [2] (setting [5]) were < 10 nM and 0.4 nM, respectively.
The matching figures for `CC[C@@]1(O)C(=O)OCc2c1cc1n(c2=O)Cc2c-1nc1cc3c(c(Cl)c1c2CNC(=O)CO)OCO3` [Compound 31, (S)-N-((15-chloro-7-ethyl-7-hydroxy-8,11-dioxo-7,8,11,13-tetrahydro-10H-[1,3]dioxolo[4,5-g]pyrano[3′,4′:6,7]indolizino[1,2-b]quinolin-14-yl)methyl)-2-hydroxyacetamide]: < 10 nM and 0.2 nM.
The matching figures for `CC[C@@]1(O)C(=O)OCc2c1cc1n(c2=O)Cc2c-1nc1cc(Cl)c3c(c1c2CNC(=O)CO)CCC3` [Compound 33, (S)-N-((4-chloro-8-ethyl-8-hydroxy-9,12-dioxo-2,3,8,9,12,14-hexahydro-1H,11H-cyclopenta[f]pyrano[3′,4′:6,7]indolizino[1,2-b]quinolin-15-yl)methyl)-2-hydroxyacetamide]: < 10 nM and 0.8 nM.
`CC[C@@]1(O)C(=O)OCc2c1cc1n(c2=O)Cc2c-1nc1cc(Cl)c3c(c1c2CNC(=O)C(O)C1CC1)CCC3` (stereo partly drawn) [Compound 34, N—(((S)-4-chloro-8-ethyl-8-hydroxy-9,12-dioxo-2,3,8,9,12,14-hexahydro-1H,11H-cyclopenta[f]pyrano[3′,4′:6,7]indolizino[1,2-b]quinolin-15-yl)methyl)-2-cyclopropyl-2-hydroxyacetamide]: the IC50 in assay [3] (setting [6]) is < 10 nM; in assay [2] (setting [5]), 0.6 nM.

The values above are taken from patent publication US20250304717A1, “CAMPTOTHECIN DERIVATIVE AND LIGAND-DRUG CONJUGATE” (HAINAN SIMCERE ZAIMING PHARMACEUTICAL CO., LTD., priority 2022, published 2025).
